Measurements published in patent US20230107195A1, “TREATMENT OF CANCER WITH SMG1-INHIBITORS” (Celgene Corporation, priority 2017, published 2023).
Entries after “also recorded” stand apart in the source; their conditions may differ.

Columns and labels:
TORK [1] = molecular target: T1, TORK (Homo sapiens, UniProt P42345); test: Western blot for markers of TORK inhibition (pS6 and p4EBP1) in HCT-116 cells; format: cell-based; conditions: parental and DNAPK−/− HCT116 cells
TORK [2] = molecular target: T1, TORK; test: ActivX KiNativ assay (probe binding, LC-MS); parameters: lysates were prepared from cell pellets and incubated with ADP and ATP probes; endogenous in cells; conditions: 0.3 μM and 1.0 μM dose, 1 h, four different cell lines
DNA-PK = molecular target: T2, DNA-PK (Homo sapiens, UniProt P78527); test: ActivX KiNativ assay (probe binding, LC-MS); conditions: 0.3 μM and 1.0 μM dose, 1 h, four different cell lines
T2 construct: lysates were prepared from cell pellets and incubated with ADP and ATP probes; endogenous in cells
Experimental: (§1) After 1 h, the medium was aspirated; cells were rinsed once with ice cold PBS, scraped off and transferred to a 15 ml conical tube. Cells were pelleted by centrifugation, the supernatant was discarded and pellets were frozen on dry ice and stored at −80° C. KiNativ assay: Briefly, lysates were prepared from cell pellets and incubated with ADP and ATP probes. After a tryptic digest, the probe labeled peptides were characterized and quantified using targeted Liquid Chromatography-Mass Spectrometry (LC-MS). Percent inhibition is defined as the reduction of probe binding in the presence of compound, indicating binding of the compound to the kinase.

SMG1 [3] = molecular target: T3, SMG1 (Homo sapiens, UniProt Q96Q15); test: ActivX KiNativ assay (probe binding, LC-MS); conditions: 0.3 μM and 1.0 μM dose, 1 h, four different cell lines
T3 construct: endogenous in cells; host or cells: HCT-116 parental and HCT-116 DNA-PK-/- cells
T3 sequence (Q96Q15 whole entry): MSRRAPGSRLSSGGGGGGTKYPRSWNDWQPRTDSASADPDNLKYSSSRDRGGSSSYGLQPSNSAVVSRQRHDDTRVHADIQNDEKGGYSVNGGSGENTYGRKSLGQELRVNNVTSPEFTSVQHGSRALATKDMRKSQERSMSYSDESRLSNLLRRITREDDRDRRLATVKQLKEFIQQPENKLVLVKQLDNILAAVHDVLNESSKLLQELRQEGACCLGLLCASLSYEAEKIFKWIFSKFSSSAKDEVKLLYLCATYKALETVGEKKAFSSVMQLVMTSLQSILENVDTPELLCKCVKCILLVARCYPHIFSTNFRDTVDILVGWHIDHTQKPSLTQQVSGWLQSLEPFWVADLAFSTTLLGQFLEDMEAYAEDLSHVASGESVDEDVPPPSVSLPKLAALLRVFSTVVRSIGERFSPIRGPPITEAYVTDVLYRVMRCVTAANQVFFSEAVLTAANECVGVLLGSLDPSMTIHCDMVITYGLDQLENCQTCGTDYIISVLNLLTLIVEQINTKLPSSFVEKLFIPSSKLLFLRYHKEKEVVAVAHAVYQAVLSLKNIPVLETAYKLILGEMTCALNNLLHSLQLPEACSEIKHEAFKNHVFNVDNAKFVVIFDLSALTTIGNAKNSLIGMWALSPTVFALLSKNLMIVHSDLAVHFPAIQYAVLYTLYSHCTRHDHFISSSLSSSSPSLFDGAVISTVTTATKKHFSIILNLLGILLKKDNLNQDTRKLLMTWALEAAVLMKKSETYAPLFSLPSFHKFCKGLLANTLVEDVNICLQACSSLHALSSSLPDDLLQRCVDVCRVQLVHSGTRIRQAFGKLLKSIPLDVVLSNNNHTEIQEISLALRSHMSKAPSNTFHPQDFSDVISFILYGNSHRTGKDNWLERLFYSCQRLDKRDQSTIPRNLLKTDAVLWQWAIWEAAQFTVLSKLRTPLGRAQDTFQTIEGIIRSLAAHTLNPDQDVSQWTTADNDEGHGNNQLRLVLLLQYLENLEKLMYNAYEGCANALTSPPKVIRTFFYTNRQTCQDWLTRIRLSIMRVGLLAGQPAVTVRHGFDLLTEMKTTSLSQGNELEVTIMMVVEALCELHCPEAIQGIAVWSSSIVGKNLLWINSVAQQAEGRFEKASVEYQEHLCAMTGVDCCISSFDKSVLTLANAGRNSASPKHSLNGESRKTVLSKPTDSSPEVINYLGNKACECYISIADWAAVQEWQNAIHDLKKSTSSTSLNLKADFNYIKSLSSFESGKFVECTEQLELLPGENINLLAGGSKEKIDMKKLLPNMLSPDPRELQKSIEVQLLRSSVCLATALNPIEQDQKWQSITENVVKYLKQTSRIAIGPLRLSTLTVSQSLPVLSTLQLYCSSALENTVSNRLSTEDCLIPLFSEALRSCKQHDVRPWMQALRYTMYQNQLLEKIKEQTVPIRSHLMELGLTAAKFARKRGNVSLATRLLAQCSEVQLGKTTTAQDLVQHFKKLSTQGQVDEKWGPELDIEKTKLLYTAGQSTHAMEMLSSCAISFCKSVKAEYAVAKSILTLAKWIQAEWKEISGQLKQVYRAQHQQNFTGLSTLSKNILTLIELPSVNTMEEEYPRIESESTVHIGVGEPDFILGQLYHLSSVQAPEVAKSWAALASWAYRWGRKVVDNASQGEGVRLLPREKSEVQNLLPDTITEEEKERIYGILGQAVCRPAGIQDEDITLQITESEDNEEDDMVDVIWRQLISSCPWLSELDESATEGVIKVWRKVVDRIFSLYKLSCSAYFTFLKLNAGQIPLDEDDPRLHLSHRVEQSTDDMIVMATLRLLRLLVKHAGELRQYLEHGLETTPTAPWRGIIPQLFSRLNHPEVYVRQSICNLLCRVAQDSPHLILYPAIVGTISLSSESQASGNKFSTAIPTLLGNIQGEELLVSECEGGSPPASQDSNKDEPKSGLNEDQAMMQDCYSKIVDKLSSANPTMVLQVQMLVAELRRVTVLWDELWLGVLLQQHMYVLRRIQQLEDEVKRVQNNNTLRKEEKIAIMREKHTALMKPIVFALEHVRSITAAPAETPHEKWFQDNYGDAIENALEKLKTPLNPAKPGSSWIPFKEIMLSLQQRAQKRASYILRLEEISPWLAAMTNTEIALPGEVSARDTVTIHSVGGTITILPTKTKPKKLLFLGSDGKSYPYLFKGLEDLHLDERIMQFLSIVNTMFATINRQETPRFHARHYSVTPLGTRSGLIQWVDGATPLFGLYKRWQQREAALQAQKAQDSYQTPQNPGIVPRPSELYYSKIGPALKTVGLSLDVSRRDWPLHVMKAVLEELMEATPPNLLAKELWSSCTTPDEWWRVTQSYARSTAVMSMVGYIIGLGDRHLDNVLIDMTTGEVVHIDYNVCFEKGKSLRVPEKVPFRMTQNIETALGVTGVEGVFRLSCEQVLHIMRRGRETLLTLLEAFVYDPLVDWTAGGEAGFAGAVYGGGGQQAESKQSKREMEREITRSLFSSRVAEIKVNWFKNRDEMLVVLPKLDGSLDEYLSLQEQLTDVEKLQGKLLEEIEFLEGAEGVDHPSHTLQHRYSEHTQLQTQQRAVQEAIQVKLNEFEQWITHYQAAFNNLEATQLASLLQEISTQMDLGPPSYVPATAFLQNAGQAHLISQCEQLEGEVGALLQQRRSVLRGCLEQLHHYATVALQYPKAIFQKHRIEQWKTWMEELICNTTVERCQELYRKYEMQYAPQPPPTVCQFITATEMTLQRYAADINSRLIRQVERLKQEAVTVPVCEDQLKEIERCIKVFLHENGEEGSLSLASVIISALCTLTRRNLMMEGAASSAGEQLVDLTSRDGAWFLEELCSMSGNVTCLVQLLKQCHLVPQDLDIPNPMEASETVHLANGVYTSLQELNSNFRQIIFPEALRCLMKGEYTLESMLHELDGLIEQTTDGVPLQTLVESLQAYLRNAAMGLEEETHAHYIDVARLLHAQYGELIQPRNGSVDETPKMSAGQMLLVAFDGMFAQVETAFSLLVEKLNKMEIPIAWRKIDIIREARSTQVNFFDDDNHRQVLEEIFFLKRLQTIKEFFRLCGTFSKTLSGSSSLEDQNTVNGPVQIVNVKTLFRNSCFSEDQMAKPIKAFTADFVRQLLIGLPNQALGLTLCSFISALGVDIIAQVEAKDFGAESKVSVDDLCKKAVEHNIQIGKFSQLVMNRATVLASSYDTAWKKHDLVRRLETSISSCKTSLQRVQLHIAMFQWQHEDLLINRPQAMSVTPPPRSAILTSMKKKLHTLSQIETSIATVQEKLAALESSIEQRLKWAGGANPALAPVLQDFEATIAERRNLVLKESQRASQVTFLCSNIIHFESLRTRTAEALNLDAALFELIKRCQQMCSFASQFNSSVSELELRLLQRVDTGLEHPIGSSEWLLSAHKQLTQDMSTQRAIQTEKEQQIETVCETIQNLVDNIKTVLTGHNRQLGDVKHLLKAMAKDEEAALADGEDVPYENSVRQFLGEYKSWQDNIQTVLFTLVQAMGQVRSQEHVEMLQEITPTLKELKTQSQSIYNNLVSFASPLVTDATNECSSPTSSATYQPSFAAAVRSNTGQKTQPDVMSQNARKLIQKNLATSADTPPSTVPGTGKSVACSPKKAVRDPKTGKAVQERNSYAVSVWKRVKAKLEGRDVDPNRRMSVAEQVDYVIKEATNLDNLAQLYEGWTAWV
Experimental: as §1

SMG1 [4] = molecular target: T3, SMG1; test: Western blot for marker of SMG1 inhibition (pATM/ATR substrate band colocalizing with UPF1) in HCT-116 cells; format: cell-based; conditions: parental and DNAPK−/− HCT116 cells
Text: SDS-PAGE and Western blot: Equal amounts of protein were subjected to SDS-PAGE using 3-8% tris-acetate protein gels (Thermo Fisher Scientific #A03755BOX, for DNA-PK, SMG1 and vinculin detection) and 4-12% bis-tris protein gels (Thermo Fisher Scientific #NP0323BOX, for phospho-(Ser/Thr) ATM/ATR substrate, UPF1, GAPDH, S6, phospho-4E-BP1, and cofilin detection). Proteins were electrophoretically transferred to 0.2 μm nitrocellulose membranes (Thermo Fisher Scientific #LC2000) and blocked for 1 hour with Odyssey Blocking Buffer TBS (LI-COR #927-50000). Membranes from 3-8% tris-acetate gels were incubated overnight with antibodies against total DNA-PK (Cell Signaling #12311), phospho DNA-PK (Ser2056) (Abcam #ab124918), total SMG1 (Cell Signaling #9149) and vinculin (Sigma #V9264). Membranes from 4-12% bis-tris gels were incubated overnight with antibodies against phospho-(Ser/Thr) ATM/ATR substrate (Cell Signaling #2851), total UPF1 (Sigma #SAB 1402893), GAPDH (Santa Cruz #47724), total S6 Ribosomal Protein (Santa Cruz #74459), phosphoS6 Ribosomal Protein (Ser240/244) (Cell Signaling #5364), phospho-4E-BP1 (Thr70) (Cell Signaling #9455), and cofilin (Santa Cruz #376476). Membranes were washed with TBST and incubated with IRDye 800CW Goat anti-Rabbit IgG (LI-COR #926-32211) and IRDye 680LT Goat anti-Mouse IgG (LI-COR #926-68020) secondary antibodies for 1 hour. […]

Structure (SMILES): CO[C@H]1CC[C@H](N2C(=O)CNc3ncc(-c4ccc(C(C)(C)O)nc4)nc32)CC1 [Compound 2, 7-(6-(2-hydroxypropan-2-yl)pyridin-3-yl)-1-((trans)-4-methoxycyclohexyl)-3,4-dihydropyrazino[2,3-b]pyrazin-2(1H)-one]
- markers of TORK inhibition (pS6 and p4EBP1) (TORK [1]): binds to TORK (pS6 and p4EBP1) only; also recorded: reduced
- binding to TORK (% inhibition of probe binding) (TORK [2]): only binds TORK
- binding to DNA-PK (% inhibition of probe binding) (DNA-PK): only binds TORK
- binding to SMG1 (% inhibition of probe binding) (SMG1 [3]): only binds TORK
- marker of SMG1 inhibition (pATM/ATR substrate, pUPF1) (SMG1 [4]): binds to TORK (pS6 and p4EBP1) only; also recorded: not by Compound 2
